According to ChEMBL document CHEMBL3885881, “DrugMatrix”:

Species on record: Rattus norvegicus
Experiment: DrugMatrix - Regimen: Daily Repeat
Type: toxicity, organism-based, Sprague-Dawley
Design: regimen Daily Repeat, gender Male, age 6-8 weeks
Settings: in vivo, po, 0 mg/kg, route oral GAVAGE, dose level Control, vehicle .5 % CMC; for ABSOLUTE BASOPHIL / ABSOLUTE EOSINOPHIL / ABSOLUTE LYMPHOCYTE / ABSOLUTE MONOCYTE / ABSOLUTE SEGMENTED NEUTROPHIL / BASOPHIL / EOSINOPHIL / ERYTHROCYTE COUNT / HEMATOCRIT / HEMOGLOBIN / LEUKOCYTE COUNT / LYMPHOCYTE / MEAN CORPUSCULAR HEMOGLOBIN / MEAN CORPUSCULAR HEMOGLOBIN CONCENTRATION / MEAN CORPUSCULAR VOLUME / MONOCYTE / NEUTROPHIL / NUCLEATED RED BLOOD CELLS / PLATELET COUNT: tissue Blood; for ALANINE AMINOTRANSFERASE / ALBUMIN / ALKALINE PHOSPHATASE / ASPARTATE AMINOTRANSFERASE / BLOOD UREA NITROGEN / CARBON DIOXIDE / CHLORIDE / CHOLESTEROL / CREATININE / GLUCOSE / LACTATE DEHYDROGENASE / LIPASE / PHOSPHORUS / POTASSIUM / SODIUM / TOTAL BILIRUBIN / TOTAL PROTEIN / URIC ACID: tissue Plasma

COc1ccccc1[N+](=O)[O-] [2-NITROANISOLE]
ABSOLUTE BASOPHIL (72 h, time 3 day): 0 CELLS/uL
ABSOLUTE EOSINOPHIL (72 h, time 3 day): 279.83 CELLS/uL
ABSOLUTE LYMPHOCYTE (72 h, time 3 day): 13152.5 CELLS/uL
ABSOLUTE MONOCYTE (72 h, time 3 day): 1013.83 CELLS/uL
ABSOLUTE SEGMENTED NEUTROPHIL (72 h, time 3 day): 2420.5 CELLS/uL
BASOPHIL (72 h, time 3 day): 0%
EOSINOPHIL (72 h, time 3 day): 1.67%
ERYTHROCYTE COUNT (72 h, time 3 day): 5.26 x10E6/uL
HEMATOCRIT (72 h, time 3 day): 32.22%
HEMOGLOBIN (72 h, time 3 day): 12.02 G/DL
LEUKOCYTE COUNT (72 h, time 3 day): 16.87 x10E3/uL
LYMPHOCYTE (72 h, time 3 day): 77.83%
MEAN CORPUSCULAR HEMOGLOBIN (72 h, time 3 day): 22.93 pg
MEAN CORPUSCULAR HEMOGLOBIN CONCENTRATION (72 h, time 3 day): 37.32 G/DL
MEAN CORPUSCULAR VOLUME (72 h, time 3 day): 61.4 fL
MONOCYTE (72 h, time 3 day): 6%
NEUTROPHIL (72 h, time 3 day): 14.5%
NUCLEATED RED BLOOD CELLS (72 h, time 3 day): 0 /100WBC
PLATELET COUNT (72 h, time 3 day): 1122.17 x10E3/uL
ALANINE AMINOTRANSFERASE (72 h, time 3 day): 55.67 u/L
ALBUMIN (72 h, time 3 day): 4.35 G/DL
ALKALINE PHOSPHATASE (72 h, time 3 day): 362.67 u/L
ASPARTATE AMINOTRANSFERASE (72 h, time 3 day): 96 u/L
BLOOD UREA NITROGEN (72 h, time 3 day): 18 mg/dL
CARBON DIOXIDE (72 h, time 3 day): 27.5 mmol/L
CHLORIDE (72 h, time 3 day): 100.17 MEQ/L
CHOLESTEROL (72 h, time 3 day): 74.5 mg/dL
CREATININE (72 h, time 3 day): 0.17 mg/dL
GLUCOSE (72 h, time 3 day): 141.67 mg/dL
LACTATE DEHYDROGENASE (72 h, time 3 day): 682.5 u/L
LIPASE (72 h, time 3 day): 10 u/L
PHOSPHORUS (72 h, time 3 day): 11.5 mg/dL
POTASSIUM (72 h, time 3 day): 6.41 MEQ/L
SODIUM (72 h, time 3 day): 141.2 MEQ/L
TOTAL BILIRUBIN (72 h, time 3 day): 0.18 mg/dL
TOTAL PROTEIN (72 h, time 3 day): 5.88 G/DL
URIC ACID (72 h, time 3 day): 1.4 mg/dL
ABSOLUTE BASOPHIL (120 h, time 5 day): 0 CELLS/uL
ABSOLUTE EOSINOPHIL (120 h, time 5 day): 18.5 CELLS/uL
ABSOLUTE LYMPHOCYTE (120 h, time 5 day): 8146.83 CELLS/uL
ABSOLUTE MONOCYTE (120 h, time 5 day): 204.83 CELLS/uL
ABSOLUTE SEGMENTED NEUTROPHIL (120 h, time 5 day): 1329.83 CELLS/uL
BASOPHIL (120 h, time 5 day): 0%
EOSINOPHIL (120 h, time 5 day): 0.17%
ERYTHROCYTE COUNT (120 h, time 5 day): 5.37 x10E6/uL
HEMATOCRIT (120 h, time 5 day): 33.17%
HEMOGLOBIN (120 h, time 5 day): 12.07 G/DL
LEUKOCYTE COUNT (120 h, time 5 day): 9.7 x10E3/uL
LYMPHOCYTE (120 h, time 5 day): 85.33%
MEAN CORPUSCULAR HEMOGLOBIN (120 h, time 5 day): 22.52 pg
MEAN CORPUSCULAR HEMOGLOBIN CONCENTRATION (120 h, time 5 day): 36.42 G/DL
MEAN CORPUSCULAR VOLUME (120 h, time 5 day): 61.78 fL
MONOCYTE (120 h, time 5 day): 1.83%
NEUTROPHIL (120 h, time 5 day): 12.67%
NUCLEATED RED BLOOD CELLS (120 h, time 5 day): 0 /100WBC
PLATELET COUNT (120 h, time 5 day): 907.5 x10E3/uL
ALANINE AMINOTRANSFERASE (120 h, time 5 day): 58.5 u/L
ALBUMIN (120 h, time 5 day): 4.4 G/DL
ALKALINE PHOSPHATASE (120 h, time 5 day): 377.67 u/L
ASPARTATE AMINOTRANSFERASE (120 h, time 5 day): 140.33 u/L
BLOOD UREA NITROGEN (120 h, time 5 day): 15.33 mg/dL
CARBON DIOXIDE (120 h, time 5 day): 32.17 mmol/L
CHLORIDE (120 h, time 5 day): 100 MEQ/L
CHOLESTEROL (120 h, time 5 day): 71.83 mg/dL
CREATININE (120 h, time 5 day): 0.18 mg/dL
GLUCOSE (120 h, time 5 day): 185 mg/dL
LACTATE DEHYDROGENASE (120 h, time 5 day): 241.5 u/L
LIPASE (120 h, time 5 day): 9.5 u/L
PHOSPHORUS (120 h, time 5 day): 13.02 mg/dL
POTASSIUM (120 h, time 5 day): 6.45 MEQ/L
SODIUM (120 h, time 5 day): 143.45 MEQ/L
TOTAL BILIRUBIN (120 h, time 5 day): 0.22 mg/dL
TOTAL PROTEIN (120 h, time 5 day): 6.1 G/DL
URIC ACID (120 h, time 5 day): 1 mg/dL
ABSOLUTE BASOPHIL ([…], time 14 day): 0 CELLS/uL
ABSOLUTE EOSINOPHIL ([…], time 14 day): 117.17 CELLS/uL
ABSOLUTE LYMPHOCYTE ([…], time 14 day): 13562 CELLS/uL
ABSOLUTE MONOCYTE ([…], time 14 day): 534.83 CELLS/uL
ABSOLUTE SEGMENTED NEUTROPHIL ([…], time 14 day): 2486 CELLS/uL
BASOPHIL ([…], time 14 day): 0%
EOSINOPHIL ([…], time 14 day): 0.83%
ERYTHROCYTE COUNT ([…], time 14 day): 6.14 x10E6/uL
HEMATOCRIT ([…], time 14 day): 36.87%
HEMOGLOBIN ([…], time 14 day): 13.87 G/DL
LEUKOCYTE COUNT ([…], time 14 day): 16.7 x10E3/uL
LYMPHOCYTE ([…], time 14 day): 81%
MEAN CORPUSCULAR HEMOGLOBIN ([…], time 14 day): 22.63 pg
MEAN CORPUSCULAR HEMOGLOBIN CONCENTRATION ([…], time 14 day): 37.62 G/DL
MEAN CORPUSCULAR VOLUME ([…], time 14 day): 60.15 fL
MONOCYTE ([…], time 14 day): 3.17%
NEUTROPHIL ([…], time 14 day): 15%
NUCLEATED RED BLOOD CELLS ([…], time 14 day): 0 /100WBC
PLATELET COUNT ([…], time 14 day): 974.83 x10E3/uL
ALANINE AMINOTRANSFERASE ([…], time 14 day): 52.33 u/L
ALBUMIN ([…], time 14 day): 4.48 G/DL
ALKALINE PHOSPHATASE ([…], time 14 day): 346.17 u/L
ASPARTATE AMINOTRANSFERASE ([…], time 14 day): 81 u/L
BLOOD UREA NITROGEN ([…], time 14 day): 15.67 mg/dL
CARBON DIOXIDE ([…], time 14 day): 34.33 mmol/L
CHLORIDE ([…], time 14 day): 100.17 MEQ/L
CHOLESTEROL ([…], time 14 day): 70.83 mg/dL
CREATININE ([…], time 14 day): 0.22 mg/dL
GLUCOSE ([…], time 14 day): 141.17 mg/dL
LACTATE DEHYDROGENASE ([…], time 14 day): 121.33 u/L
LIPASE ([…], time 14 day): 8.33 u/L
PHOSPHORUS ([…], time 14 day): 9.97 mg/dL
POTASSIUM ([…], time 14 day): 6.4 MEQ/L
SODIUM ([…], time 14 day): 143.72 MEQ/L
TOTAL BILIRUBIN ([…], time 14 day): 0.22 mg/dL
TOTAL PROTEIN ([…], time 14 day): 6.45 G/DL
URIC ACID ([…], time 14 day): 1.25 mg/dL
